Results: ChEMBL document CHEMBL3785018, “Pharmacokinetics/pharmacodynamics of acetaminophen analgesia in Japanese patients with chronic pain” (Biol Pharm Bull, 2007)
Converted amounts (≈) assume the structure as drawn.

Legend:
[1] = AUC (0 to infinity) in Japanese healthy volunteer (5 volunteers) at 1000 mg, po by HPLC method; format: ADME, organism-based; design: dose 1000 mg, route oral, time infinity; settings: human, in vivo
[2] = Apparent volume of distribution in Japanese healthy volunteer (5 volunteers) at 1000 mg, po by HPLC method; format: ADME, organism-based; settings: human, in vivo
[3] = Cmax in Japanese healthy volunteer (5 volunteers) at 1000 mg, po by HPLC method; format: ADME, organism-based; design: dose 1000 mg, route oral; settings: human, in vivo
[4] = Tmax in Japanese healthy volunteer (5 volunteers) at 1000 mg, po by HPLC method; format: ADME, organism-based; settings: human, in vivo
Homo sapiens [5] = assay: AUC (0 to infinity) in Japanese healthy volunteer (5 volunteers) assessed as acetaminophen-cysteine at 1000 mg, po by HPLC method; format: ADME, organism-based; design: dose 1000 mg, time infinity, route oral; settings: in vivo
Homo sapiens [6] = assay: AUC (0 to infinity) in Japanese healthy volunteer (5 volunteers) assessed as acetaminophen-glucuronide at 1000 mg, po by HPLC method; format: ADME, organism-based; design: dose 1000 mg, time infinity, route oral; settings: in vivo
Homo sapiens [7] = assay: AUC (0 to infinity) in Japanese healthy volunteer (5 volunteers) assessed as acetaminophen-sulfate at 1000 mg, po by HPLC method; format: ADME, organism-based; design: dose 1000 mg, route oral, time infinity; settings: in vivo
Homo sapiens [8] = assay: Toxicity in Japanese healthy volunteer (5 volunteers) at 1000 mg, po; format: organism-based; settings: in vivo
[9] = Apparent volume of distribution in Japanese chronic pain patient (5 patients) at 800 +/- 141 mg, po administered as single dose by fluorescence polarization immunoassay; format: ADME, organism-based; settings: human, in vivo
Homo sapiens [10] = assay: Analgesic activity in Japanese chronic pain patient (5 patients) assessed as maximum pain relief score at 800 +/- 141 mg, po administered as single dose measured over 15 mins to 6 hrs; format: functional
Homo sapiens [11] = assay: Analgesic activity in po dosed Japanese chronic pain patient (5 patients) assessed as compound dose require to cause 50% maximum pain relief score administered as single dose measured over 15 mins to 6 hrs; format: functional, organism-based
Homo sapiens [12] = assay: Analgesic activity in Japanese chronic pain patient (5 patients) assessed as sigmoid factor at 800 +/- 141 mg, po administered as single dose measured over 15 mins to 6 hrs; format: functional
[13] = Tmax in Japanese chronic pain patient at 600 to 1000 mg, po administered as single dose by fluorescence polarization immunoassay; format: ADME, organism-based; settings: human, in vivo
Homo sapiens [14] = assay: Toxicity in Japanese chronic pain patient at 600 to 1000 mg, po administered as single dose; format: organism-based; settings: in vivo
[15] = Drug uptake in Japanese chronic pain patient at 600 to 1000 mg, po administered as single dose after 4 hrs by fluorescence polarization immunoassay; format: ADME, organism-based; settings: human, in vivo, read-out: Drug uptake
[16] = Drug uptake in human after 4 hrs; format: ADME, organism-based; settings: in vivo, read-out: Drug uptake
Homo sapiens [17] = assay: Drug metabolism in Japanese healthy volunteer assessed as acetaminophen-cysteine metabolite formation at 1000 mg, po by HPLC method; format: ADME, organism-based; settings: in vivo
Homo sapiens [18] = assay: Drug level in Japanese healthy volunteer treated with acetaminophen at 1000 mg, po by HPLC method; format: ADME, organism-based; settings: in vivo

Compound | AUC(0-inf) [1] | Vd/F [2] | Cmax [3] | Tmax [4] | AUC (Homo sapiens [5]) | AUC (Homo sapiens [6]) | AUC (Homo sapiens [7]) | Activity (Homo sapiens [8]) | Vd/F [9] | Emax (Homo sapiens [10]) | EC50 (Homo sapiens [11]) | Activity (Homo sapiens [12]) | Tmax [13] | Activity (Homo sapiens [14]) | concentration at 4 h [15] | concentration at 4 h [16] | Drug metabolism (Homo sapiens [17]) | Drug metabolism (Homo sapiens [18])
CC(=O)Nc1ccc(O)cc1 [ACETAMINOPHEN] | 77800 ng·h/mL | 69.7 L | 17700 ng/mL | 30 min | 3700 ng·h/mL | 66000 ng·h/mL | 21000 ng·h/mL | Non-toxic | 30.9 L | 4.6 | 2 µg/mL (≈ 13.2 µM) | 1.3 | 30 min | Non-toxic | 6700 ng/mL | 120000 ng/mL | < 0.2 µg/mL | –
CC(=O)Nc1ccc(O)c(SC[C@H](N)C(=O)O)c1 | – | – | – | – | – | – | – | – | – | – | – | – | – | – | – | – | – | metabolite_detected
